Data from patent US4757076A, “Method of inhibiting aromatase” (Eli Lilly and Company, priority 1984, dated 1988).
Structures can show the parent of a compound that is named as a salt.

Tests used:
aromatase = biological target: T1, aromatase (Rattus norvegicus, UniProt P22443); test: Aromatase inhibition in the rat ovarian microsome assay (modified isolated rat ovarian microsome method of Brodie et al.); format: biochemical; conditions: rat ovarian microsomes; substrate (androstenedione) concentration 0.1 μM
T1 construct: ovarian microsomes are obtained from rats treated with pregnant mares serum gonadotropin; from tissue; host or cells: ovarian microsomes of rats treated with pregnant mares serum gonadotropin
T1 sequence (P22443 1-508): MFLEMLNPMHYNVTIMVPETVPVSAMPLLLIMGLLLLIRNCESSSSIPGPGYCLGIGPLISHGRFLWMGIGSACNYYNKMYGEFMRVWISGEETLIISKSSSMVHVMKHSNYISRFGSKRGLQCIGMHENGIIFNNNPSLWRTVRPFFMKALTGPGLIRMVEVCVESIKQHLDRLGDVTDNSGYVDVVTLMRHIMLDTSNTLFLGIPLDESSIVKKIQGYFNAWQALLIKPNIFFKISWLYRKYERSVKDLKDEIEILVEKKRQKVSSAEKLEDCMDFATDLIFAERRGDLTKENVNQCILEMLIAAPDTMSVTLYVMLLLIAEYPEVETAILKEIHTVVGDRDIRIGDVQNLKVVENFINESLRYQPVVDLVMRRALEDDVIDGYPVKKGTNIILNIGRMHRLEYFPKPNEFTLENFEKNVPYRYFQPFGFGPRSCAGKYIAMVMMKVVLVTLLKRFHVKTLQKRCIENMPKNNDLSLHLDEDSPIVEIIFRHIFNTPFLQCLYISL
Description: In this test system, ovarian microsomes are obtained from rats treated with pregnant mares serum gonadotropin. Test compounds are added to reaction vials containing 0.1 μM 4-androstene-3,17-dione, 100,000 dpm 1,2[^3 H]-androstenedione, the microsomes and a NADPH generating system. The concentrations of the inhibitors tested ranged between 0.005 and 10 μM.

[1] = system: DMBA-induced mammary tumors; test: DMBA-Induced Mammary Tumor Inhibition; format: in vivo, female Sprague-Dawley rats; conditions: 300 ppm in diet (approx. 30 mg/kg/day)
Description: Mammary tumors were produced in female Sprague-Dawley rats which were 50-60 days old by the gavage administration of 20 mg of 7,12-dimethylbenz[a]anthracene (DMBA). About six weeks after DMBA administration, the mammary glands were palpated at weekly intervals for the appearance of tumors. Whenever one or more tumors appeared and were measurable in an animal, that animal was selected for experimentation. […] Each control and test group contained 8 animals. The test compound was administered mixed into the food at a concentration of 300 ppm (corresponding to an appropriate daily dose of 30 mg/kg). The experiment included a group of control rats having tumors and were given food without the compound admixed. […] The area of each tumor was calculated by multiplying the shortest and longest diameters of the tumor. The treatment and measurement of animals continued for 5 weeks at which time the final areas of the tumors were determined.

[2] = system: estrogen synthesis (aromatization); test: Estrogen Synthesis Inhibition in Rats (uterine weight and ovarian steroid concentration); format: in vivo, immature female Wistar rats; conditions: 7 days; for Mean Uterine Weight: testosterone propionate-treated, significantly different from testosterone-treated control (163.88); for Mean Steroid Concentration, estriol / Mean Steroid Concentration, estradiol: ovary; for Mean Steroid Concentration, estriol: testosterone-treated control 0.68; for Mean Steroid Concentration, estradiol: testosterone-treated control 1.29
Description: Test compounds were administered for seven days as a component of the diet. Control animals received diet without the test compound. Beginning on the fourth day of the test, all animals treated with the test compound and one half of the control animals were given a subcutaneous injection of 1.0 mg of testosterone propionate in corn oil. The remaining control animals received only an equivalent volume of corn oil.
After two hours, the animals were killed by decapitation. Uteri were isolated, trimmed of extraneous connective tissue, and weighed.
The ovarian steroids were extracted with 1.5 ml of 9:1 (v/v) toluene/ethanol to which had been added 25 to 100 mcg. each of unlabelled estradiol, estriol, and estrone, and approximately 1000 dpm of [^14 C]-estradiol. The samples were vortexed, centrifuged at 500×g for 10 minutes, and the organic phase was transferred to a conical vial. Two additional extractions were performed on the residue in the same way. The pooled organic extracts were evaporated for subsequent thin-layer chromatography.
Ovarian proteins were precipitated by the addition of 5.0 ml of ethanol to the remaining aqueous phase. After an overnight incubation at 4° C., the samples were centrifuged at 1500×g for 10 minutes. The supernatant was discarded, and the pellet was dissolved in 0.3 N potassium hydroxide.
The organic residue from each above extraction was redissolved in 9:1 (v/v) dichloromethane/methanol. The solution of each sample was applied to separate silica gel thin layer chromatography plates which contained a fluorescent indicator. The plates were developed in the first dimension with 160:38:1.5:0.5 (v/v/v/v) dichloromethane/ethyl acetate/methanol/acetic acid to within 3 cm of the top of the plate. After air-drying, the plate was developed in the second dimension with 180:19:1 (v/v/v) dichloromethane/methanol/ammonium hydroxide. The plate was air-dried and viewed under 254 nm UV light.
The visible spots were marked, and the plates were sprayed with primulin (0.001% in 4:1 v/v acetone/water) according to the method of Wright, J. Chromatography, 59, 220 (1971) which allowed for the identification of additional steroids under 365 nm UV light. The spots were scraped from the plate using a glass wool plugged Pasteur pipet attached to a vacuum line. The steroids were eluted directly into scintillation vials by the addition of 0.2 ml of dichloromethane followed by two washes each of 2.0 ml of methanol. The organic solvent was evaporated and 10.0 ml of scintillation fluid (Beckman Ready Solv-NA) was added to the vials. Samples were analyzed by liquid scintillation spectrometry. Corrections were made based on the recoveries of the [^14 C]-steroid. Steroid concentrations are expressed as femtomoles per milligram protein.

[3] = 30 ppm in feed (approx. 3 mg/kg/day)

SMILES	EC50 (aromatase) [µM]	further results
OC(Cc1ccc(Cl)cc1)(c1ccncc1)c1ccc(Cl)cc1 (stereo not shown) [1,2-bis(4-chlorophenyl)-1-(4-pyridyl)ethanol]	0.185	
CCCSC(c1ccc(Cl)cc1)(c1ccc(Cl)cc1)c1cccnc1 [3-[α-(4-chlorophenyl)-α-(n-propylthio)-4-chlorobenzyl]pyridine]	1.75	
Clc1ccc(Cc2ccncc2)cc1 [4-(4-chlorobenzyl)pyridine]	0.55	
O=[N+]([O-])c1ccc(Cc2ccncc2)cc1 [4-(4-nitrobenzyl)pyridine]	0.98	
Clc1ccccc1C(c1ccncc1)c1ccccc1Cl [4-bis(2-chlorophenyl)methylpyridine]	0.49	
OC(Cc1ccc(Cl)cc1Cl)(Cc1ccc(Cl)cc1Cl)c1cccnc1 [α,α-bis(2,4-dichlorobenzyl)-3-pyridinemethanol hydrochloride]	1.85	
OC(c1cccnc1)(c1ccc(Cl)cc1Cl)c1ccc(Cl)cc1Cl [α,α-bis(2,4-dichlorophenyl)-3-pyridinemethanol hydrochloride]	4	
OC(c1cccnc1)(c1cccc(Br)c1)c1cccc(Br)c1 [α,α-bis(3-bromophenyl)-3-pyridinemethanol]	2.2	
OC(Cc1ccc(Cl)cc1)(Cc1ccc(Cl)cc1)c1cccnc1 [α,α-bis(4-chlorobenzyl)-3-pyridinemethanol]	> 5	
OC(c1ccc(Cl)cc1)(c1ccc(Cl)cc1)c1cccnc1 [α,α-bis(4-chlorophenyl)-3-pyridinemethanol]		Mean Tumor Area, Finish ([1]; after 5 weeks, control 1140): 433 mm^2; Mean Tumor Area, Start ([1]; start of 5-week test, control 73.9): 108.8 mm^2; Mean Uterine Weight ([2]; 30 ppm in feed (approx. 3 mg/kg/day), 4 animals, p < 0.05): 127.25 mg; Mean Uterine Weight ([2]; 300 ppm in feed (approx. 30 mg/kg/day), 5 animals, p < 0.05): 87.80 mg; Mean Steroid Concentration, estriol [2, 3]: 0.70 femtomoles per milligram of protein; Mean Steroid Concentration, estradiol [2, 3]: 1.04 femtomoles per milligram of protein; Mean Steroid Concentration, estriol ([2]; 300 ppm in feed (approx. 30 mg/kg/day)): 0.39 femtomoles per milligram of protein; Mean Steroid Concentration, estradiol ([2]; 300 ppm in feed (approx. 30 mg/kg/day), p < 0.05): 0.36 femtomoles per milligram of protein
CN(C)c1ccc(C(O)(c2ccncc2)c2ccc(N(C)C)cc2)cc1 [α,α-bis[4-(dimethylamino)phenyl]-4-pyridinemethanol]	3.4	
OC(Cc1ccccc1)(Cc1ccccc1)c1cccnc1 [α,α-dibenzyl-3-pyridinemethanol]	2.85	
OC(Cc1ccc(Cl)cc1Cl)(c1ccc(Cl)cc1)c1cccnc1 (stereo not drawn) [α-(2,4-dichlorobenzyl)-α-(4-chlorophenyl)-3-pyridinemethanol hydrochloride]	> 5	
OC(Cc1ccc(Cl)cc1Cl)(c1ccc(Cl)cc1)c1cccnc1 (stereo not drawn) [α-(2,4-dichlorobenzyl)-α-(4-chlorophenyl)-3-pyridinemethanol]	3.2	
OC(c1ccccc1)(c1cccnc1)c1ccc(F)cc1F (stereo not drawn) [α-(2,4-difluorophenyl)-α-phenyl-3-pyridinemethanol]	2.05	
OC(Cc1ccc(Cl)c(Cl)c1)(c1ccc(Cl)cc1)c1cccnc1 (stereo not drawn) [α-(3,4-dichlorobenzyl)-α-(4-chlorophenyl)-3-pyridinemethanol]	3.15	
OC(c1ccc(Cl)cc1)c1cccnc1 (stereo not drawn) [α-(3-pyridyl)-4-chlorobenzyl alcohol]	2.4	
OC(Cc1ccc(Cl)cc1)(Cc1ccc(Cl)cc1Cl)c1cccnc1 (stereo not drawn) [α-(4-chlorobenzyl)-α-(2,4-dichlorobenzyl)-3-pyridinemethanol]	2.4	
OC(Cc1ccc(Cl)cc1)(c1cccnc1)c1cccc(Cl)c1 (stereo not drawn) [α-(4-chlorobenzyl)-α-(3-chlorophenyl)-3-pyridinemethanol]	3.2	
OC(Cc1ccc(Cl)cc1)(c1ccc(Cl)cc1)c1cccnc1 (stereo not drawn) [α-(4-chlorobenzyl)-α-(4-chlorophenyl)-3-pyridinemethanol]	2.9	
Cc1cncc(C(O)(c2ccccc2)c2ccc(Cl)cc2)c1 (stereo not drawn) [α-(4-chlorophenyl)-5-methyl-α-phenyl-3-pyridinemethanol]	4.1	
CCCN(CCC)C(c1ccc(Cl)cc1)c1cccnc1 (stereo not drawn) [α-(4-chlorophenyl)-N,N--di(n-propyl)-3-pyridylmethylamine]	0.15	
OC(c1ccc(Cl)cc1)(c1cccnc1)c1ccc2c(c1)OCO2 (stereo not drawn) [α-(4-chlorophenyl)-α-(3,4-methylenedioxyphenyl)-3-pyridinemethanol]	0.5	
Cc1ccc(C(O)(c2ccccc2)c2cccnc2)cc1 (stereo not drawn) [α-(4-methylphenyl)-α-phenyl-3-pyridinemethanol]	2.4	
